One block for each compound: values may come before it.
Legend:
[1] = target: Serine/threonine-protein kinase MARK1 (Homo sapiens) (UniProt Q9P0L2); assay: Selectivity interaction (KinomeScan (DiscoverX)) EUB0001079a MARK1; conditions: at 1 µM
[2] = target: RAC-gamma serine/threonine-protein kinase (Homo sapiens, UniProt Q9Y243); assay: Selectivity interaction (Millipore kinase profiler) EUB0000124b AKT3; conditions: at 10 µM
[3] = target: T1, Serine/threonine-protein kinase Nek1 (Homo sapiens) (UniProt Q96PY6); assay: Selectivity interaction (ActivX KiNativ screen (ex vivo kinase selectivity in human PBMCs)) EUB0001619a NEK1; format: cell-based; conditions: PBMC, at 1 µM
T1 sequence (whole entry): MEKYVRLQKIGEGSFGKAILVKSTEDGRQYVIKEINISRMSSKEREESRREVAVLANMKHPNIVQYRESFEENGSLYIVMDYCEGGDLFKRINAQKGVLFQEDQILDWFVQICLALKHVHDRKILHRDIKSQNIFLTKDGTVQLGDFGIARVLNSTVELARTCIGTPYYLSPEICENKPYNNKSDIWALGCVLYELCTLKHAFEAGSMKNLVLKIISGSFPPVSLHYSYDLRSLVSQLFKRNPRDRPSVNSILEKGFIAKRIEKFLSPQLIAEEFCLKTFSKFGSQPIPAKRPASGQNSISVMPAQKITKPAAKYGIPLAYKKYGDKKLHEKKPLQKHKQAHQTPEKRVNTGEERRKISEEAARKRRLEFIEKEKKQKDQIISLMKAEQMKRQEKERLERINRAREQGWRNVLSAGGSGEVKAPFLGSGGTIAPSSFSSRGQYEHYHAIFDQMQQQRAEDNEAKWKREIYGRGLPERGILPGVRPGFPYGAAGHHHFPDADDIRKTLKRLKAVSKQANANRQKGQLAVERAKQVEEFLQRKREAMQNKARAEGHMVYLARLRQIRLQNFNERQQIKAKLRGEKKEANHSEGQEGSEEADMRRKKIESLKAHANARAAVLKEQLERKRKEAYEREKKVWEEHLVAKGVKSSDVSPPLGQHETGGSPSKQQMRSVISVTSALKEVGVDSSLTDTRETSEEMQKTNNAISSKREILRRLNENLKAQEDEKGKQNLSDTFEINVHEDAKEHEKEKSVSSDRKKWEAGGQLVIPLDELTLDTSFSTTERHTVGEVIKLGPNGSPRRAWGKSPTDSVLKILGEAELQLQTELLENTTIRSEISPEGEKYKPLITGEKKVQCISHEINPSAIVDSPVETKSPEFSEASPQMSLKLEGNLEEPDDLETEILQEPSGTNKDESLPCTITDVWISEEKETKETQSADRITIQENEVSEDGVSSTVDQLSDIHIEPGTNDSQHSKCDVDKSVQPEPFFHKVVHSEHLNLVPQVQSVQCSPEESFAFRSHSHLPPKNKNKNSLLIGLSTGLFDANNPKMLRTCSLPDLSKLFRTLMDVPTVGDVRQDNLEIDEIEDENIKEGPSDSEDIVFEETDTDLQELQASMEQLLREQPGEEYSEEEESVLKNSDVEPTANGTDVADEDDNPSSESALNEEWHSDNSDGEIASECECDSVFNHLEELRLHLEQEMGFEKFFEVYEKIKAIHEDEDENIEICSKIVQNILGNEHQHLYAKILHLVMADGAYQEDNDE

[4] = target: BMP-2-inducible protein kinase (Homo sapiens) (UniProt Q9NSY1); assay: Selectivity interaction (KinomeScan (DiscoverX)) EUB0000595a BMP2K; conditions: at 10 µM
BMP-2-inducible protein kinase (Homo sapiens), sequence (Q9NSY1 whole entry, looked up): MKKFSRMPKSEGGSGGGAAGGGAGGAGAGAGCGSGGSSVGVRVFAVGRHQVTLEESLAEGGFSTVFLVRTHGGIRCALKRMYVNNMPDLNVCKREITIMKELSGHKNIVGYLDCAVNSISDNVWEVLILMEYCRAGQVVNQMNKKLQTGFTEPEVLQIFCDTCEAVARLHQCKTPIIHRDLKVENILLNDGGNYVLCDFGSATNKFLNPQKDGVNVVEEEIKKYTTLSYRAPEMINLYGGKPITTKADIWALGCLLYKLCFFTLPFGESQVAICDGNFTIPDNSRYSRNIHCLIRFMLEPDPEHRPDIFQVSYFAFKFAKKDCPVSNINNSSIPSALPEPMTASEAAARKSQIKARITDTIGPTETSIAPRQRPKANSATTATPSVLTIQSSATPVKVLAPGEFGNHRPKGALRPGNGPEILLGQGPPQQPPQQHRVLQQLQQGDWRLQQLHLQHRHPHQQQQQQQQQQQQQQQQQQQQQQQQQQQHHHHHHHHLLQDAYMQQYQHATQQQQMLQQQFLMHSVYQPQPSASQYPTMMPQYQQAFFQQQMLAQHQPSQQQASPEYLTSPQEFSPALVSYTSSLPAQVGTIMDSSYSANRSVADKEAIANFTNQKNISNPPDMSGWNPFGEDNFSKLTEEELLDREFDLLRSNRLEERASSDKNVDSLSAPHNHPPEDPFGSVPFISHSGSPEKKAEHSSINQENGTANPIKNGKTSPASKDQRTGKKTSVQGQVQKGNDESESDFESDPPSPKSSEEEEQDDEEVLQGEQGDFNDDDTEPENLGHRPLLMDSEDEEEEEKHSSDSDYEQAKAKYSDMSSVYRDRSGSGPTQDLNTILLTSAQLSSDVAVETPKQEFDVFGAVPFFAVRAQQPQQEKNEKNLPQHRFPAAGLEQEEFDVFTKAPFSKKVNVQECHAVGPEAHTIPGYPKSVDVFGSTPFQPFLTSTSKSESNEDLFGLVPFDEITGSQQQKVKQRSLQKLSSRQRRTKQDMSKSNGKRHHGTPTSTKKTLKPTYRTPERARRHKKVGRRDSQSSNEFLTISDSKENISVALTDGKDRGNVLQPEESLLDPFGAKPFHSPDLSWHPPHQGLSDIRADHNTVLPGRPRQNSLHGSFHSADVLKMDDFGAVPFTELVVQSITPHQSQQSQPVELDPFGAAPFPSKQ

[5] = target: T2, Mitogen-activated protein kinase 12 (Homo sapiens) (UniProt P53778); assay: Selectivity interaction (KinomeScan (DiscoverX)) EUB0000595a MAPK12; conditions: at 10 µM
T2 sequence (whole entry): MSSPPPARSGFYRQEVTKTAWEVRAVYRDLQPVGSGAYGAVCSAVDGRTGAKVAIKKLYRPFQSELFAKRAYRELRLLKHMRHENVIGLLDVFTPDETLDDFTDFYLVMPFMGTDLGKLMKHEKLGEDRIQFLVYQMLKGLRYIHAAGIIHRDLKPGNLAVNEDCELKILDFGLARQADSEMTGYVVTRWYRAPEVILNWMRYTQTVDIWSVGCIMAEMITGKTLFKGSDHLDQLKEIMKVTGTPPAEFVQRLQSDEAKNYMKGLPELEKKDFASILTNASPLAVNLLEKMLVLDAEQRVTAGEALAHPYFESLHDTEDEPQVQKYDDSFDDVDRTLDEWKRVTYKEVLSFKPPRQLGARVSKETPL

[6] = tested on: Tyrosine-protein kinase ABL1 (Homo sapiens), P00519 [F317L]; conditions: at 10 µM
Tyrosine-protein kinase ABL1 (Homo sapiens), P00519 [F317L], sequence (P00519 whole entry F317L): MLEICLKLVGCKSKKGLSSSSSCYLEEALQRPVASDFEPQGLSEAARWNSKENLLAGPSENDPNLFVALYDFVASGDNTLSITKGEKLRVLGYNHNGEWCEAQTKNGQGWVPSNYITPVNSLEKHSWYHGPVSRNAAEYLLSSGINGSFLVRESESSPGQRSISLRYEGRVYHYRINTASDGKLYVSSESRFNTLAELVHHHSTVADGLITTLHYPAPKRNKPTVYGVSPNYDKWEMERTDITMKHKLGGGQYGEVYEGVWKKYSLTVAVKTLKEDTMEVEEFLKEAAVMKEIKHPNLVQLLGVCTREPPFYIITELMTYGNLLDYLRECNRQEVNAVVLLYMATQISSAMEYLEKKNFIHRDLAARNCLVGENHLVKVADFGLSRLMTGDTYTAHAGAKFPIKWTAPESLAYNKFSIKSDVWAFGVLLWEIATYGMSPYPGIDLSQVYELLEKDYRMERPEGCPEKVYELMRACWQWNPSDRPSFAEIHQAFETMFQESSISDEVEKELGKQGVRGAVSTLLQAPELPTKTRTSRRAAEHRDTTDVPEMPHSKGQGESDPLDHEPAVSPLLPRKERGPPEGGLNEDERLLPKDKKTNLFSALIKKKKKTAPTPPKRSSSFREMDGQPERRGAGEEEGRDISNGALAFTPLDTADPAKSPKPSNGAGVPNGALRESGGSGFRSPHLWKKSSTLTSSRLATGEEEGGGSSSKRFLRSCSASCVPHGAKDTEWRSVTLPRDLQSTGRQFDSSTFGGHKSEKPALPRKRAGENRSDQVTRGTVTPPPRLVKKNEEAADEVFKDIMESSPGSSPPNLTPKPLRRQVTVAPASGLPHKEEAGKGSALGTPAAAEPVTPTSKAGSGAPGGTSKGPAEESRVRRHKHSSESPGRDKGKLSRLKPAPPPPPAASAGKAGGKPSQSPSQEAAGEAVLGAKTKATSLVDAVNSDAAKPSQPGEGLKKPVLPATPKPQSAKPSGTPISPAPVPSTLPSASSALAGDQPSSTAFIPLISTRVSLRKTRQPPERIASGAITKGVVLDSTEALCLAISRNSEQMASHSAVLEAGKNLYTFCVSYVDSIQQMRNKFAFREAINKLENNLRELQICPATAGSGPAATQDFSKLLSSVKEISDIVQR

[7] = target: T3, Serine/threonine-protein kinase D3 (Homo sapiens) (UniProt O94806); assay: (§1) Selectivity interaction (ActivX KiNativ screen (kinase selectivity in THP-1 cell lysates)) EUB0000639a PRKD3; format: subcellular; conditions: lysate, at 5 µM
T3 sequence (whole entry): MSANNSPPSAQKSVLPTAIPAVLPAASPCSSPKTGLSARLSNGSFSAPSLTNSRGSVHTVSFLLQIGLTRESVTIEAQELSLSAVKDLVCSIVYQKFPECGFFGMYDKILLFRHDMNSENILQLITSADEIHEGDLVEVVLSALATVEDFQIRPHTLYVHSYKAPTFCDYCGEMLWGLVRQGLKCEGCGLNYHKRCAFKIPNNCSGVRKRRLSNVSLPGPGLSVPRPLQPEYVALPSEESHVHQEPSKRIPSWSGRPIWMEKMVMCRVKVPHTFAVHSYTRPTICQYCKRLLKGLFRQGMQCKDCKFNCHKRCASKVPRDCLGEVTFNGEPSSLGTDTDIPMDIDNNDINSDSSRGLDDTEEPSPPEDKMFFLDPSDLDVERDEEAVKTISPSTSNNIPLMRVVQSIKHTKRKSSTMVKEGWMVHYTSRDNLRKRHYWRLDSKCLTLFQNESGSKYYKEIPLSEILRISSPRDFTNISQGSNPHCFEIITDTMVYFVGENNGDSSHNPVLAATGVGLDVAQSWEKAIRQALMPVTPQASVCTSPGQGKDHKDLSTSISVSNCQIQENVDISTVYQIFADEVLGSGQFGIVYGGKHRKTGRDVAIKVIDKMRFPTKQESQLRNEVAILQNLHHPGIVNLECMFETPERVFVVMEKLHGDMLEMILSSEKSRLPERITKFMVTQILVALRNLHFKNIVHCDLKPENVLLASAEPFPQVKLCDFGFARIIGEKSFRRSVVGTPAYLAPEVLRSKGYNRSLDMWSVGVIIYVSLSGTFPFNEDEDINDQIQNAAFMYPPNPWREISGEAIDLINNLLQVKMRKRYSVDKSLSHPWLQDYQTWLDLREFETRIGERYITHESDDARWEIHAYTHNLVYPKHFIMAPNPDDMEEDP

[8] = target: T3, Serine/threonine-protein kinase D3 (Homo sapiens); assay: as §1; format: subcellular; conditions: lysate, at 0.01 µM
[9] = target: Atypical kinase COQ8A, mitochondrial (Homo sapiens, UniProt Q8NI60); assay: Selectivity interaction (KinomeScan (DiscoverX)) EUB0001049a ADCK3; conditions: at 1 µM
Atypical kinase COQ8A, mitochondrial, sequence (Q8NI60 163-647 limits assumed): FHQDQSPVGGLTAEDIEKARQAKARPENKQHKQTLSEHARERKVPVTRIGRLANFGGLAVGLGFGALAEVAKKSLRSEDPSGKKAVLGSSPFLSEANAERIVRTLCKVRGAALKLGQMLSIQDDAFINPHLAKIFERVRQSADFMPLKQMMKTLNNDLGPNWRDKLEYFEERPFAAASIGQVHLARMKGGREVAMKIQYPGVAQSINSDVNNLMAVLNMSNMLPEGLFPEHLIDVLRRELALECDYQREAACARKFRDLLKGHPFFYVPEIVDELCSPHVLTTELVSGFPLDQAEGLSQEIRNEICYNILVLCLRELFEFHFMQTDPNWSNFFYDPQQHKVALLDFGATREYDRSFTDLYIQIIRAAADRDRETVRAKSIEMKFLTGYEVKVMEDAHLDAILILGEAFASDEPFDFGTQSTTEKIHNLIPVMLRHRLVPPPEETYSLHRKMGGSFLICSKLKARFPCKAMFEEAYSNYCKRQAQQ

SRSF protein kinase 1 = SRSF protein kinase 1 (Homo sapiens, UniProt Q96SB4); assay: Selectivity interaction (KinomeScan (DiscoverX)) EUB0001049a SRPK1; conditions: at 1 µM
SRSF protein kinase 1, sequence (Q96SB4 whole entry): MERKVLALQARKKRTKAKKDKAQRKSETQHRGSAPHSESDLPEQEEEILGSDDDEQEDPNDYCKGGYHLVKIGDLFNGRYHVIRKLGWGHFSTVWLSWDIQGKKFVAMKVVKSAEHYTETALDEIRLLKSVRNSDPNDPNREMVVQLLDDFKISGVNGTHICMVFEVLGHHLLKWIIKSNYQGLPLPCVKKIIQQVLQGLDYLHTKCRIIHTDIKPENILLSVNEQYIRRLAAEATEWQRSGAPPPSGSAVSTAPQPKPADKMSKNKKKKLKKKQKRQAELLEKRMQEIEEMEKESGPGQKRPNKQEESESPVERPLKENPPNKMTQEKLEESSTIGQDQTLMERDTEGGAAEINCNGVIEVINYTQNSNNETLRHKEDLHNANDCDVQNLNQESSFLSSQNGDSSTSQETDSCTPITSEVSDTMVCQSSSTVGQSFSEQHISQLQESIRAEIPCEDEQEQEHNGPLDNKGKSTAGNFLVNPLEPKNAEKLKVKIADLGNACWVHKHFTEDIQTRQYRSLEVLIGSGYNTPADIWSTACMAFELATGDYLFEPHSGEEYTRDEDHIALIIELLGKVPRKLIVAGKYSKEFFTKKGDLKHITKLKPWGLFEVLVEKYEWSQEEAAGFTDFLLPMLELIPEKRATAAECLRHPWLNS

Serine/threonine-protein kinase MARK1 (Homo sapiens), sequence (Q9P0L2 whole entry, looked up): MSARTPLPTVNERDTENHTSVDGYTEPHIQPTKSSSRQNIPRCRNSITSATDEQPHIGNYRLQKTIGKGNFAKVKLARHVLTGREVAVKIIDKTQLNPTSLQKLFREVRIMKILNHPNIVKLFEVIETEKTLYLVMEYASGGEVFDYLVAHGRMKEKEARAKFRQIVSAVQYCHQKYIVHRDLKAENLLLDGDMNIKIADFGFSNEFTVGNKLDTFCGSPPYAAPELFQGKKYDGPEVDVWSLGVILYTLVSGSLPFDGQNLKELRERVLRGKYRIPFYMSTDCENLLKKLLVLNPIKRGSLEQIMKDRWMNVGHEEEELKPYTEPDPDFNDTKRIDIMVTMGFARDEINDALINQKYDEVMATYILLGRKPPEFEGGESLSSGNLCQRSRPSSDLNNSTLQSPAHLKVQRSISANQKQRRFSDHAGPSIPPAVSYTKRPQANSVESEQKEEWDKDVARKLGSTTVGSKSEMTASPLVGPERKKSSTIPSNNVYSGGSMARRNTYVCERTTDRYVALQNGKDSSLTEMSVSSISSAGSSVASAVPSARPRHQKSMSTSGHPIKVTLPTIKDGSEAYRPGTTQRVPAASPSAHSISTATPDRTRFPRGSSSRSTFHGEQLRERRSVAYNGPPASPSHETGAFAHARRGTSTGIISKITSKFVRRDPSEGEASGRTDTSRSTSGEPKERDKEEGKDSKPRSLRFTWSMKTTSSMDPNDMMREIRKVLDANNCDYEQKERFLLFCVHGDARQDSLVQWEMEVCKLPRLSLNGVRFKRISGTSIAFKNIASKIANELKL
RAC-gamma serine/threonine-protein kinase, sequence (Q9Y243 whole entry): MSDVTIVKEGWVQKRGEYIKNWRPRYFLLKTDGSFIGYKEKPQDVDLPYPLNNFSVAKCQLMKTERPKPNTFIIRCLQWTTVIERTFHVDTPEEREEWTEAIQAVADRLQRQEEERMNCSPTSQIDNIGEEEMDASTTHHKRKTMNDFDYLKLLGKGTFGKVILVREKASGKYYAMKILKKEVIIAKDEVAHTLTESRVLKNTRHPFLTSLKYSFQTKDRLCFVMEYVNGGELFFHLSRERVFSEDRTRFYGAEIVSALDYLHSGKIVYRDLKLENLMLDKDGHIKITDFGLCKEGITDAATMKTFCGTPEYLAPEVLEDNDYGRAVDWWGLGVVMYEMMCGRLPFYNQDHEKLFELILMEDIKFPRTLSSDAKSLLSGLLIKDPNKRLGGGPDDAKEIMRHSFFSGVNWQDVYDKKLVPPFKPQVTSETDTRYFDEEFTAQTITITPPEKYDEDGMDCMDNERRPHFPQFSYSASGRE

Structure (SMILES): Nc1cnc(N2CCc3cc(S(=O)(=O)Nc4c(F)cc(Cl)cc4F)cc(N4CCCC4=O)c32)nc1 [TP-020n]
- % of control [1]: 76%

- % of control [2]: 109%
Structure (SMILES): CC(=O)Nc1cccc(-n2c(=O)n(C3CC3)c(=O)c3c(Nc4ccc(I)cc4F)n(C)c(=O)c(C)c32)c1

Structure (SMILES): N#Cc1cccc(-c2c[nH]c3ncnc(N4CCOCC4)c23)c1
- % of inhibition [3]: -2%

Structure (SMILES): COCC(=O)NC/C=C/c1ccc2ncnc(Nc3ccc(Oc4ccc(C)nc4)c(C)c3)c2c1 [CP-724714]
- % of control [4]: 73%
- % of control [5]: 100%

Structure (SMILES): Cc1cc([C@@H](C)Nc2ccccc2C(=O)O)c2nc(N3CCOCC3)cc(=O)n2c1 [AZD-6482]
- % of control [6]: 87%

- % of inhibition [7]: -5.2%
- % of inhibition [8]: 0%
Structure (SMILES): CC[C@@H]1[C@H](F)C(=O)N[C@@H]1COc1nccc2cc(C(N)=O)c(OC)cc12 [ZIMLOVISERTIB]

Structure (SMILES): COc1cc(Nc2nc(C)cc(-c3cnn4nc(OC)ccc34)n2)cc(C(F)(F)F)c1
- % of control [9]: 91%
- % of control (SRSF protein kinase 1): 96%

Source: ChEMBL document CHEMBL5465560, “Selectivity Literature for EUbOPEN Chemogenomic Library” (2024)
